The record followed here is US9981940B2, “Aryl sulfide derivatives and aryl sulfoxide derivatives as acaricides and insecticides” (BAYER CROPSCIENCE AKTIENGESELLSCHAFT, priority 2013, dated 2018).

The test system of data set [1] is Tetranychus urticae. Kind of data set: Tetranychus urticae spray test, OP-resistant (TETRUR). The data set is classed as in vivo. Conditions: application rate of 500 g/ha, after 6 days; for pest or weed control at 500 g/ha: Tetranychus urticae, 144 h, read-out: efficacy. The method, boiled down:
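Bean leaf discs infested with all stages of an OP-resistant Tetranychus urticae strain sprayed with compound in acetone/DMF with alkylaryl polyglycol ether emulsifier, diluted in water. Efficacy in % scored after 6 days; 100% means all mites killed.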

A short description of data set [2]: log P by HPLC (OECD Guideline 117), method [a] acidic range. The class given is physicochemical. Conditions: for logP[a]: HPLC, method [a] acidic range; for chromatographic logP: reversed-phase C18 HPLC column, acidic range. As to the method:
(§1) The log P values were determined analogously to OECD Guideline 117 (EC Directive 92/69/EEC) by HPLC (high-performance liquid chromatography) using reversed-phase columns (C 18), by the following methods:
[a] The LC-MS determination in the acidic range is effected at pH 2.7 with 0.1% aqueous formic acid and acetonitrile (contains 0.1% formic acid) as eluents; linear gradient from 10% acetonitrile to 95% acetonitrile.

A short description of data set [3]: log P by HPLC (OECD Guideline 117), method [b] neutral range. The class given is physicochemical. As to conditions: HPLC; for logP[b]: method [b] neutral range; for chromatographic logP: reversed-phase C18 HPLC column, neutral range, pH 7.8. As for the experimental part: as §1
[b] The LC-MS determination in the neutral range is effected at pH 7.8 with 0.001 molar aqueous ammonium hydrogencarbonate solution and acetonitrile as eluents; linear gradient from 10% acetonitrile to 95% acetonitrile.

Data set [4] deals with Boophilus microplus. In words: Boophilus microplus injection test (BOOPMI Inj). The class given is in vivo. Conditions: application rate of 20 μg/animal, assessed after 7 days by laying of fertile eggs. As for the experimental part: Use Examples Boophilus microplus Injection Test (BOOPMI Inj) • Solvent: dimethyl sulphoxide
To prepare an appropriate active ingredient formulation, 10 mg of active ingredient are mixed with 0.5 ml of solvent and the concentrate is diluted with solvent to the desired concentration.
1 μl of the active ingredient solution is injected into the abdomen of 5 engorged adult female cattle ticks (Boophilus microplus). The animals are transferred into dishes and kept in a climate-controlled room.
The efficacy is assessed after 7 days by laying of fertile eggs. Eggs which are not visibly fertile are stored in a climate-controlled cabinet until the larvae hatch after about 42 days.
An efficacy of 100% means that none of the ticks has laid any fertile eggs; 0% means that all the eggs are fertile.

Setting [5] is: pH 2.7, HPLC method [a], read-out: logP[a].
[6] abbreviates: pH 2.7, HPLC, pH 2.7, read-out: log P[a].

For the molecule `Cc1cc(F)c(-n2nc(Br)n(C3CC3)c2=O)cc1[S+]([O-])CC(F)(F)F` (racemic) [Example 295], the efficacy in data set [1] and in data set [4] was 100% throughout. In data set [2], the “logP[a]” value is on record as 2.39. Also, the “logP[b]” value in data set [3] is given as 2.34.

For `Cc1cc(C)c([S+]([O-])CC(F)(F)F)cc1-n1nc(OCC(F)(F)F)n(C2CC2)c1=O` (racemic) [Example 381], the values for the efficacy in data set [1] and in data set [4] were 90% and 100%, respectively. Besides, the “logP[a]” value in data set [2] amounted to 2.88. Further, the “logP[b]” value in data set [3] is given as 2.94.

Take `Cc1cc(Cl)c([S+]([O-])CC(F)(F)F)cc1-n1nc(OCC(F)(F)F)n(C2CC2)c1=O` (racemic) [Example 384]: the efficacy in data set [1] and in data set [4] was 100% throughout. Moreover, the “logP[a]” value in data set [2] turned out to be 3.06. Besides, the “logP[b]” value in data set [3] came to 2.97.

In the case of `COc1cc(F)c(-n2nc(OCC(F)(F)F)n(C3CC3)c2=O)cc1[S+]([O-])CC(F)(F)F` (racemic) [Example 385], the “logP[a]” value in data set [2] came out at 2.80. Also, the “logP[b]” value in data set [3] came to 2.74. The efficacy in data set [4] worked out at 100%.

For the molecule `Cn1c(C(F)(F)F)nn(-c2cc(SCC(F)(F)F)c(C#N)cc2F)c1=O` [Example 38], the efficacy in data set [1] and in data set [4] was 100% throughout. In addition, the “logP[a]” value in data set [2] turned out to be 3.09. In data set [3], the “logP[b]” value is 3.08.

As to `COCc1nn(-c2cc([S+]([O-])CC(F)(F)F)c(C)cc2F)c(=O)n1C1CC1` (centres unmarked) [Example 45], the efficacy in data set [1] and in data set [4] was 100% in each case. For the same molecule, in data set [2], the “logP[a]” value amounted to 1.99. For the same molecule, the “logP[b]” value in data set [3] worked out at 1.96.

Consider `Cc1cc(F)c(-n2nc(C(F)(F)F)n(C3CC3)c2=O)cc1[S+]([O-])CC(F)(F)F` (centres unmarked) [Example 60], for which the efficacy in data set [1] stood at 90%; in data set [4], 100%. For the same molecule, the “logP[a]” value in data set [2] was 2.93. Further, the “logP[b]” value in data set [3] is listed as 2.82.

For `Cc1ccc(-n2nc(OCC(F)(F)F)n(C3CC3)c2=O)cc1SCC(F)(F)F` [Example 92], the efficacy in data set [1] and in data set [4] was 100% in each case. Further, the “logP[a]” value in data set [2] amounted to 4.29. In data set [3], the “logP[b]” value was determined as 4.20.

With `Cc1cc(F)c(-n2nc(OC(C)C)n(C3CC3)c2=O)cc1SCC(F)(F)F` [Example 101], the efficacy in data set [1] and in data set [4] was 100% throughout. Besides, the “logP[a]” value in data set [2] is given as 3.93. Also, the “logP[b]” value in data set [3] is on record as 3.85.

Consider `COc1nn(-c2cc([S+]([O-])CC(F)(F)F)c(C)cc2C)c(=O)n1C1CC1` (centres unmarked) [Example 119], for which the efficacy is on record as 90% in data set [1] and 100% in data set [4]. Besides, in data set [2], the “logP[a]” value is 2.21. For the same molecule, the “logP[b]” value in data set [3] is reported as 2.17.

On to `Cc1cc(F)c(-n2nc(OC(C)(C)C)n(C)c2=O)cc1SCC(F)(F)F` [Example 157], for which the efficacy in data set [1] and in data set [4] was 100% each time. Besides, in data set [2], the “logP[a]” value was 3.98. Besides, the “logP[b]” value in data set [3] is 3.88.

`Cc1cc(F)c(-n2nc(C(F)(F)F)n(N)c2=O)cc1[S+]([O-])CC(F)(F)F` (centres unmarked) [Example 215]: the efficacy in data set [1] and in data set [4] was 100% in each case. The “logP[a]” value in data set [2] is recorded as 2.19. Besides, the “logP[b]” value in data set [3] came to 2.17.

Regarding `Cc1cc(F)c(-n2nc(S(C)(=O)=O)n(C3CC3)c2=O)cc1[S+]([O-])CC(F)(F)F` (centres unmarked) [Example 228], the efficacy in data set [1] is 90%; in data set [4], 100%. Also, the “logP[a]” value in data set [2] is 2.12. Further, in data set [3], the “logP[b]” value was 2.08.

With `Cc1cc(F)c(-n2nc([S+](C)[O-])n(C3CC3)c2=O)cc1[S+]([O-])CC(F)(F)F` (centres unmarked) [Example 231], the efficacy in data set [1] and in data set [4] was 100% in each case. Further, in data set [2], the “logP[a]” value is on record as 1.61. For the same molecule, the “logP[b]” value in data set [3] is 1.58.

Consider `CCn1c([S+](C)[O-])nn(-c2cc([S+]([O-])CC(F)(F)F)c(C)cc2F)c1=O` (centres unmarked) [Example 241], for which the efficacy in data set [1] and in data set [4] was 100% throughout. In data set [2], the “logP[a]” value worked out at 1.65. Further, the “logP[b]” value in data set [3] came to 1.61.

For the molecule `Cc1cc(F)c(-n2nc([S+]([O-])C(C)C)n(C)c2=O)cc1[S+]([O-])CC(F)(F)F` (centres unmarked) [Example 245], the efficacy in data set [1] and in data set [4] was 100% each time. Besides, the “logP[a]” value in data set [2] turned out to be 1.94. Further, in data set [3], the “logP[b]” value is 1.90.

On to `CCn1c([S+]([O-])CC)nn(-c2cc(SCC(F)(F)F)c(C)cc2F)c1=O` (centres unmarked) [Example 253], for which the efficacy in data set [1] and in data set [4] was 100% each time. Besides, the “logP[a]” value in data set [2] was 2.84. The “logP[b]” value in data set [3] is given as 2.81.

With `CSc1nn(-c2cc([S+]([O-])CC(F)(F)F)c(C)cc2F)c(=O)n1C1CC1` (centres unmarked) [Example 257], the efficacy in data set [1] and in data set [4] was 100% in each case. For the same molecule, the “logP[a]” value in data set [2] is 2.45. In data set [3], the “logP[b]” value was 2.40.

On to `CCn1ccn(-c2cc(SCC(F)(F)F)c(C)cc2F)c1=O` [Example 486, 1-Ethyl-3-{2-fluoro-4-methyl-5-[(2,2,2-trifluoroethyl)sulphanyl]phenyl}-1,3-dihydro-2H-imidazol-2-one], for which the pest or weed control at 500 g/ha in data set [1] stood at 100%. Also, the chromatographic logP in data set [2] (setting [5]) came out at 2.84; in data set [2] (setting [6]), 2.84; in data set [3], 2.79.

`CCn1ccn(-c2cc([S+]([O-])CC(F)(F)F)c(C)cc2F)c1=O` (centres unmarked) [Example 487, 1-Ethyl-3-{2-fluoro-4-methyl-5-[(2,2,2-trifluoroethyl)sulphinyl]phenyl}-1,3-dihydro-2H-imidazol-2-one]: the pest or weed control at 500 g/ha in data set [1] came to 90%. The chromatographic logP in data set [2] (setting [5]) was 1.83; in data set [2] (setting [6]) it was 1.83; in data set [3], 1.81.

In data set [1], `Cc1cc(F)c(-n2ccn(C(C)(C)C)c2=O)cc1SCC(F)(F)F` [Example 488] gave an efficacy of 100%. Moreover, the “logP[a]” value in data set [2] was 3.69. For the same molecule, the “logP[b]” value in data set [3] is 3.63.

In data set [1], `Cc1cc(F)c(-n2ccn(C(C)(C)C)c2=O)cc1[S+]([O-])CC(F)(F)F` (centres unmarked) [Example 489] displayed an efficacy of 90%. Besides, the “logP[a]” value in data set [2] is on record as 2.50. Also, the “logP[b]” value in data set [3] was 2.47.

On to `COCc1nn(-c2cc(SCC(F)(F)F)c(C)cc2F)c(=S)n1C1CC1` [Example 492], for which, in data set [1], the efficacy was determined as 100%. Also, the “logP[a]” value in data set [2] stood at 3.49. In addition, the “logP[b]” value in data set [3] is 3.43.

For `Cc1cc(F)c(-n2nc(CC(C)C)n(C3CC3)c2=S)cc1SCC(F)(F)F` [Example 493], the efficacy in data set [1] turned out to be 100%. For the same molecule, in data set [2], the “logP[a]” value worked out at 4.44. Moreover, the “logP[b]” value in data set [3] was 4.35.

In data set [1], `Cc1cc(F)c(-n2nc(C(C)C)n(C3CC3)c2=S)cc1SCC(F)(F)F` [Example 494] gave an efficacy of 100%. In data set [2], the “logP[a]” value came out at 4.1. The “logP[b]” value in data set [3] is 4.02.

With `CCCCc1nn(-c2cc(SCC(F)(F)F)c(C)cc2F)c(=S)n1C1CC1` [Example 495], the efficacy in data set [1] was 100%. Also, the “logP[a]” value in data set [2] amounted to 4.52. In addition, the “logP[b]” value in data set [3] is listed as 4.43.

In turn, `Cc1cc(F)c(-n2nc(C3CCCCC3)n(C3CC3)c2=S)cc1SCC(F)(F)F` [Example 496] returned an efficacy in data set [1] of 90%. For the same molecule, in data set [2], the “logP[a]” value turned out to be 5.00. Moreover, the “logP[b]” value in data set [3] was determined as 4.88.

Consider `Cc1cc(F)c(-n2nc(C3CCCC3)n(C3CC3)c2=S)cc1SCC(F)(F)F` [Example 497, 5-Cyclopentyl-4-cyclopropyl-2-{2-fluoro-4-methyl-5-[(2,2,2-trifluoroethyl)sulphanyl]-phenyl}-2,4-dihydro-3H-1,2,4-triazole-3-thione], for which the pest or weed control at 500 g/ha in data set [1] turned out to be 90%. The chromatographic logP in data set [2] (setting [5]) came to 4.68; in data set [2] (setting [6]) it was 4.68; in data set [3], 4.57.

For `Cc1cc(F)c(-n2nc(C3CC3)n(C(C)C)c2=S)cc1SCC(F)(F)F` [Example 498], the efficacy in data set [1] turned out to be 100%. Moreover, in data set [2], the “logP[a]” value amounted to 4.24. Moreover, the “logP[b]” value in data set [3] is reported as 4.14.

`CCC(C)c1nn(-c2cc(SCC(F)(F)F)c(C)cc2F)c(=S)n1C1CC1` (centres unmarked) [Example 499] had an efficacy in data set [1] of 90%. For the same molecule, the “logP[a]” value in data set [2] was found to be 4.46. Also, the “logP[b]” value in data set [3] came out at 4.39.

As to `CCOCc1nn(-c2cc(SCC(F)(F)F)c(C)cc2F)c(=S)n1C1CC1` [Example 500], in data set [1], the efficacy turned out to be 100%. The “logP[a]” value in data set [2] is listed as 3.82. Also, in data set [3], the “logP[b]” value came out at 3.77.

Molecule `CC=Cc1nn(-c2cc(SCC(F)(F)F)c(C)cc2F)c(=S)n1C1CC1` [Example 501] displayed an efficacy in data set [1] of 90%. Besides, the “logP[a]” value in data set [2] amounted to 4.00. Also, in data set [3], the “logP[b]” value worked out at 3.94.
